Source: patent publication US20100234339A1, “SILVER(I) COMPOUNDS AND THEIR USE IN PHARMACEUTICAL COMPOSITIONS FOR THE TREATMENT,PROPHYLAXIS AND PREVENTION OF INFECTIONS” (priority 2007, published 2010)

Experiments:
[1] = system: P. mirabilis 1; test: MIC, broth microdilution (NCCLS); format: cell-based; settings: Gram negative; resistant clinical isolate from diabetic foot ulcer; MHB 24 h 35° C.
Description: (§1) Their antimicrobial activity was established according to the recommendations of NCCLS, (National Committee for Clinical Laboratory Standards 1999, “Performance standards for antimicrobial susceptibility testing. NCCLS approved standard M100-S9” Wayne, Pa.) by the use of a broth microdilution method. Minimum inhibitory concentrations (MICs) for the tested compound were conducted using 12 different pathogens clinically isolated from diabetic foot ulcers and are all resistant strains for at least 10 antibiotics used for diabetic foot ulcer treatment. S. aureus 1, 2 and 3 and S. pyogenes 1, 2 and 3 as […] bacteria and P. mirabilis 1, 2 and 3 and Ps. aeruginosa 1, 2 and 3 as […] bacteria. The test materials were dissolved in DMSO. The highest concentration used was 256 μg/ml. The inoculum was 10^5CFU/ml for bacteria and 10^4CFU/ml for the yeast. Bacteria were cultured in Mueller Hinton Broth (MHB) for 24 h at 35° C. and the yeast in Glucose Peptone Broth (GPB) for 48 h at 30° C. MIC value was corresponding to the lowest concentration that inhibited the bacterial growth.
(§2) For the following seven samples, MICs values were determined and the antimicrobial activity is inversely proportional to this value. Concentrations used in this screening were: 1, 2, 4, 8, 16, 32, 64, 128 and 256 (μg/ml). 1 μg/ml corresponds to a 10^−4% solution and an Ag(I) concentration of about 2·10^−6 mol/dm^3.

[2] = system: S. pyogenes 2; test: MIC, broth microdilution (NCCLS); format: cell-based; settings: Gram positive; resistant clinical isolate from diabetic foot ulcer; MHB 24 h 35° C.
Description: as §1, §2

[3] = system: S. pyogenes 1; test: MIC, broth microdilution (NCCLS); format: cell-based; settings: Gram positive; resistant clinical isolate from diabetic foot ulcer; MHB 24 h 35° C.
Description: as §1, §2

[4] = system: S. aureus 1; test: MIC, broth microdilution (NCCLS); format: cell-based; settings: Gram positive; resistant clinical isolate from diabetic foot ulcer; MHB 24 h 35° C.
Description: as §1, §2

[5] = system: Ps. aeruginosa 1; test: MIC, broth microdilution (NCCLS); format: cell-based; settings: Gram negative; resistant clinical isolate from diabetic foot ulcer; MHB 24 h 35° C.
Description: as §1, §2

[6] = system: P. mirabilis 3; test: MIC, broth microdilution (NCCLS); format: cell-based; settings: Gram negative; resistant clinical isolate from diabetic foot ulcer; MHB 24 h 35° C.
Description: as §1, §2

[7] = system: P. mirabilis 2; test: MIC, broth microdilution (NCCLS); format: cell-based; settings: Gram negative; resistant clinical isolate from diabetic foot ulcer; MHB 24 h 35° C.
Description: as §1, §2

[8] = system: S. aureus 3; test: MIC, broth microdilution (NCCLS); format: cell-based; settings: Gram positive; resistant clinical isolate from diabetic foot ulcer; MHB 24 h 35° C.
Description: as §1, §2

[9] = system: S. aureus 2; test: MIC, broth microdilution (NCCLS); format: cell-based; settings: Gram positive; resistant clinical isolate from diabetic foot ulcer; MHB 24 h 35° C.
Description: as §1, §2

[10] = system: S. pyogenes 3; test: MIC, broth microdilution (NCCLS); format: cell-based; settings: Gram positive; resistant clinical isolate from diabetic foot ulcer; MHB 24 h 35° C.
Description: as §1, §2

[11] = Solubility in DMSO; format: physicochemical; settings: sparingly soluble

SMILES | MIC P. mirabilis 1 [1] | MIC S. pyogenes 2 [2] | MIC S. pyogenes 1 [3] | MIC S. aureus 1 [4] | MIC Ps. Aeruginosa 1 [5] | MIC P. mirabilis 3 [6] | MIC P. mirabilis 2 [7] | MIC S. aureus 3 [8] | MIC S. aureus 2 [9] | MIC S. pyogenes 3 [10] | solubility in DMSO [11]
COC(=O)c1ccncc1.O=[N+]([O-])[O-].[Ag+] [Compound 4, [Ag(methylisonicotinate)2]NO3] | 2 µg/mL | 128 µg/mL | 64 µg/mL | 16 µg/mL | 128 µg/mL | 2 µg/mL | 1 µg/mL | 8 µg/mL | 32 µg/mL | 64 µg/mL | 3000 to 5000 µg/mL
CCOC(=O)c1ccncc1.O=[N+]([O-])[O-].[Ag+] [Compound 3, [Ag(ethylisonicotinato)2]NO3] | 8 µg/mL | 16 µg/mL | 32 µg/mL | 8 µg/mL | 32 µg/mL | 16 µg/mL | 2 µg/mL | 16 µg/mL | 4 µg/mL | 16 µg/mL | 3000 to 5000 µg/mL
Nc1ncccc1C(=O)O.Nc1ncccc1C(=O)O.O=[N+]([O-])[O-].O=[N+]([O-])[O-].[Ag+].[Ag+] [Compound 6, [Ag2-μ-O,O′(2-aminonicotinium)2](NO3)2] | 64 µg/mL | 256 µg/mL | 128 µg/mL | 32 µg/mL | 8 µg/mL | 32 µg/mL | 16 µg/mL | 64 µg/mL | 32 µg/mL | 256 µg/mL | –
CCOC(=O)c1cccnc1.O=[N+]([O-])[O-].[Ag+] [Compound 2, [Ag(ethylnicotinate)2]NO3] | 128 µg/mL | 4 µg/mL | 2 µg/mL | 16 µg/mL | 64 µg/mL | 256 µg/mL | 128 µg/mL | 4 µg/mL | 4 µg/mL | 2 µg/mL | 3000 to 5000 µg/mL
